What was measured:
NLRP3 inflammasome = assay: IL-1β secretion assay in PMA-differentiated THP-1 cells, nigericin-activated (HTRF); assay type: cell-based; conditions: Homo sapiens, 15 μM nigericin, 3 hours, read-out: IL-1β IC50
Protocol: 10 μL supernatant was removed, and IL-1p levels were monitored using an HTRF assay (CisBio, #621L1PEC) according to manufacturers' instructions. Viability and pyroptosis was monitored with the addition of PrestoBlue cell viability reagent (Life Technologies, #A13261) directly to the cell culture plate.
(§1) IC50 values were calculated from the plot of percentage of inhibition versus the inhibitor concentration by a logistics fit according to: y=A2+(A1−A2)/(1+(x/IC50)^p) where y is the %-inhibition at the inhibitor concentration, x. A1 is the lowest inhibition value, i.e. 0%, and A2 the maximum inhibition value, i.e. 100%. The exponent, p, is the Hill coefficient. The curve fitting was conducted with an internally developed software suite.
NLRP3-dependent IL-1β secretion was stimulated in PMA-differentiated THP-1 cells by the addition of nigericin, and cytokines were measured in the […] after 3 hours. As discussed above, activation of the NLRP3 inflammasome requires both an NF-kB-dependent priming step and the addition of a NLRP3 activator.

[1] = tested on: NF-kB-dependent TNF-α secretion; assay: TNF-α secretion assay in THP-1 cells (counter screen, HTRF); assay type: cell-based; conditions: Homo sapiens, Pam3CSK4-stimulated, 3 hours
Protocol: Monocytic THP-1 cells were maintained according to providers' instructions in RPMI media as described above. […] Experimental compounds were prepared and added as described above. TNF-α secretion was triggered by the addition of either 1 μg/mL LPS (Sigma, #L4391) or 100 ng/mL Pam3CSK4 (Invivogen, #tlrl-pms) depending on the experiment, and cells were incubated for 3 hours. 10 μL supernatant was removed, and TNF-α levels were monitored using an HTRF assay (CisBio, #62TNFPEC) according to manufacturers' instructions. Viability was monitored as described above.
as §1, with “suite. […]” for “suite.”

Cc1cc(C(F)(F)F)cc(O)c1-c1ccc(NCC2COCCN2C)nn1 (racemic) [Ex 77, (rac)-3-Methyl-2-(6-(((4-methylmorpholin-3-yl)methyl)amino)pyridazin-3-yl)-5-(trifluoromethyl)phenol]
IC50 (NLRP3 inflammasome): 0.0619 µM | IC50 [1]: > 100 µM

Cc1cc(C(F)(F)F)cc(O)c1-c1ccc(N[C@@H]2CCC[C@H]2O)nn1 (relative stereo) [Ex 24, (trans)-2-(6-((2-Hydroxycyclopentyl)amino)pyridazin-3-yl)-3-methyl-5-(trifluoromethyl)phenol]
IC50 (NLRP3 inflammasome): 0.12 µM | IC50 [1]: 37 µM

Cc1cc(C(F)(F)F)cc(O)c1-c1ccc(N[C@H]2C[C@@](C)(O)C2)nn1 [Ex 2, 2-(6-(((cis)-3-Hydroxy-3-methylcyclobutyl)amino)pyridazin-3-yl)-3-methyl-5-(trifluoromethyl)phenol]
IC50 (NLRP3 inflammasome): 0.0102 µM | IC50 [1]: > 100 µM

Cc1cc(C(F)(F)F)cc(O)c1-c1ccc(N[C@@H]2CCC[C@H](O)C2)nn1 [Ex 3, 2-(6-(((1R,3S)-3-Hydroxycyclohexyl)amino)pyridazin-3-yl)-3-methyl-5-(trifluoromethyl)phenol]
IC50 (NLRP3 inflammasome): 0.0255 µM | IC50 [1]: > 100 µM

CCN1CCC[C@H]1CNc1ccc(-c2c(C)cc(C(F)(F)F)cc2O)nn1 [Ex 8, (S)-2-(6-(((1-Ethylpyrrolidin-2-yl)methyl)amino)pyridazin-3-yl)-3-methyl-5-(trifluoromethyl)phenol]
IC50 (NLRP3 inflammasome): 0.0241 µM | IC50 [1]: > 100 µM

Cc1cc(C(F)(F)F)cc(O)c1-c1ccc(NCC(O)(C(F)(F)F)C(F)(F)F)nn1 [Ex 10, 3-Methyl-2-(6-((3,3,3-trifluoro-2-hydroxy-2-(trifluoromethyl)propyl)amino)pyridazin-3-yl)-5-(trifluoromethyl)phenol]
IC50 (NLRP3 inflammasome): 0.349 µM | IC50 [1]: > 33 µM

Cc1cc(C(F)(F)F)cc(O)c1-c1ccc(NC[C@H]2CCCN2)nn1 [Ex 14, (R)-3-Methyl-2-(6-((pyrrolidin-2-ylmethyl)amino)pyridazin-3-yl)-5-(trifluoromethyl)phenol]
IC50 (NLRP3 inflammasome): 0.0857 µM | IC50 [1]: > 100 µM

Cc1cc(C(F)(F)F)cc(O)c1-c1ccc(NCC(C)(C)O)nn1 [Ex 15, 2-(6-((2-Hydroxy-2-methylpropyl)amino)pyridazin-3-yl)-3-methyl-5-(trifluoromethyl)phenol]
IC50 (NLRP3 inflammasome): 0.0859 µM | IC50 [1]: > 100 µM

Cc1cc(C(F)(F)F)cc(O)c1-c1ccc(NCC(C)(C)N(C)C)nn1 [Ex 16, 2-(6-((2-(Dimethylamino)-2-methylpropyl)amino)pyridazin-3-yl)-3-methyl-5-(trifluoromethyl)phenol]
IC50 (NLRP3 inflammasome): 0.0363 µM | IC50 [1]: > 100 µM

Cc1cc(C(F)(F)F)cc(O)c1-c1ccc(OCC(C)(C)O)nn1 [Ex 19, 2-(6-(2-Hydroxy-2-methylpropoxy)pyridazin-3-yl)-3-methyl-5-(trifluoromethyl)phenol]
IC50 (NLRP3 inflammasome): 0.0936 µM | IC50 [1]: > 100 µM

Cc1cc(C(F)(F)F)cc(O)c1-c1ccc(NC[C@H]2CCCCN2)nn1 [Ex 20, (R)-3-Methyl-2-(6-((piperidin-2-ylmethyl)amino)pyridazin-3-yl)-5-(trifluoromethyl)phenol]
IC50 (NLRP3 inflammasome): 0.0823 µM | IC50 [1]: > 100 µM

Cc1cc(C(F)(F)F)cc(O)c1-c1ccc(NC[C@@H]2CCCCN2)nn1 [Ex 21, (S)-3-Methyl-2-(6-((piperidin-2-ylmethyl)amino)pyridazin-3-yl)-5-(trifluoromethyl)phenol]
IC50 (NLRP3 inflammasome): 0.0484 µM | IC50 [1]: > 100 µM

Cc1cc(C(F)(F)F)cc(O)c1-c1ccc(NC[C@@H]2CC(F)(F)CN2)nn1 [Ex 22, (S)-2-(6-(((4,4-Difluoropyrrolidin-2-yl)methyl)amino)pyridazin-3-yl)-3-methyl-5-(trifluoromethyl)phenol]
IC50 (NLRP3 inflammasome): 0.0807 µM | IC50 [1]: > 100 µM

Cc1cc(C(F)(F)F)cc(O)c1-c1ccc(NC[C@H]2CC(F)(F)CN2)nn1 [Ex 23, (R)-2-(6-(((4,4-Difluoropyrrolidin-2-yl)methyl)amino)pyridazin-3-yl)-3-methyl-5-(trifluoromethyl)phenol]
IC50 (NLRP3 inflammasome): 0.0934 µM | IC50 [1]: > 100 µM

Cc1cc(C(F)(F)F)cc(O)c1-c1cc(C(F)(F)F)c(NCCO)nn1 [Ex 26, 2-(6-((2-Hydroxyethyl)amino)-5-(trifluoromethyl)pyridazin-3-yl)-3-methyl-5-(trifluoromethyl)phenol]
IC50 (NLRP3 inflammasome): 0.165 µM | IC50 [1]: > 100 µM

Cc1cc(C(F)(F)F)cc(O)c1-c1ccc(NCc2ccccn2)nn1 [Ex 28, 3-Methyl-2-(6-((pyridin-2-ylmethyl)amino)pyridazin-3-yl)-5-(trifluoromethyl)phenol]
IC50 (NLRP3 inflammasome): 0.288 µM | IC50 [1]: > 100 µM

Cc1cc(C(F)(F)F)cc(O)c1-c1ccc(NCC(C)(C)N)nn1 [Ex 29, 2-(6-((2-Amino-2-methylpropyl)amino)pyridazin-3-yl)-3-methyl-5-(trifluoromethyl)phenol]
IC50 (NLRP3 inflammasome): 0.169 µM | IC50 [1]: > 100 µM

CC(C)(O)CNc1ccc(-c2c(O)cc(C(F)(F)F)cc2Cl)nn1 [Ex 30, 3-Chloro-2-(6-((2-hydroxy-2-methylpropyl)amino)pyridazin-3-yl)-5-(trifluoromethyl)phenol]
IC50 (NLRP3 inflammasome): 0.214 µM | IC50 [1]: > 100 µM

CN1CCC[C@@H](Nc2cc(C(F)(F)F)c(-c3ccc(Cl)cc3O)nn2)C1 [Ex 70, (R)-5-Chloro-2-(6-((1-methylpiperidin-3-yl)amino)-4-(trifluoromethyl)pyridazin-3-yl)phenol]
IC50 [1]: > 100 µM

Cc1cc(N[C@@H]2CCCN(C)C2)nnc1-c1ccc(Cl)cc1O [Ex 71, (R)-5-Chloro-2-(4-methyl-6-((1-methylpiperidin-3-yl)amino)pyridazin-3-yl)phenol]
IC50 [1]: > 100 µM

Cc1cc(C(F)(F)F)cc(O)c1-c1ccc(N[C@@H]2CCCNC2)nn1 [Ex 74, (R)-3-Methyl-2-(6-(piperidin-3-ylamino)pyridazin-3-yl)-5-(trifluoromethyl)phenol]
IC50 [1]: > 100 µM

Cc1cc(C(F)(F)F)cc(O)c1-c1ccc(N[C@@H]2CCCN(CC(C)(C)O)C2)nn1 [Ex 80, (R)-2-(6-((1-(2-Hydroxy-2-methylpropyl)piperidin-3-yl)amino)pyridazin-3-yl)-3-methyl-5-(trifluoromethyl)phenol]
IC50 [1]: > 33 µM

Cc1cc(N[C@@H]2CCCN(C)C2)nnc1-c1ccc(OC(F)(F)F)cc1O [Ex 82, (R)-2-(4-Methyl-6-((1-methylpiperidin-3-yl)amino)pyridazin-3-yl)-5-(trifluoromethoxy)phenol]
IC50 [1]: > 100 µM

Cc1cc(C(F)(F)F)cc(O)c1-c1ccc(N[C@@H]2CC[C@H](CO)N(C)C2)nn1 [Ex 87a, 2-(6-(((3R,6R)-6-(Hydroxymethyl)-1-methylpiperidin-3-yl)amino)pyridazin-3-yl)-3-methyl-5-(trifluoromethyl)phenol]
IC50 [1]: > 100 µM

Cc1cc(C(F)(F)F)cc(O)c1-c1ccc(N[C@H]2CC[C@@H](CO)N(C)C2)nn1 [Ex 87b, 2-(6-(((3S,6S)-6-(Hydroxymethyl)-1-methylpiperidin-3-yl)amino)pyridazin-3-yl)-3-methyl-5-(trifluoromethyl)phenol]
IC50 [1]: 77 µM

Cc1cc(C(F)(F)F)cc(O)c1-c1ccc(N[C@H]2CCCN[C@H]2C)nn1 [Ex 91a, 3-Methyl-2-(6-(((2S,3S)-2-methylpiperidin-3-yl)amino)pyridazin-3-yl)-5-(trifluoromethyl)phenol]
IC50 [1]: > 100 µM

Cc1cc(C(F)(F)F)cc(O)c1-c1ccc(N[C@@H]2CCCN[C@@H]2C)nn1 [Ex 91b, 3-Methyl-2-(6-(((2R,3R)-2-methylpiperidin-3-yl)amino)pyridazin-3-yl)-5-(trifluoromethyl) phenol]
IC50 [1]: > 100 µM

Cc1cc(C(F)(F)F)cc(O)c1-c1ccc(N[C@@H]2CCCN(C[C@H](C)O)C2)nn1 [Ex 92a, 2-(6-(((R)-1-((S)-2-Hydroxypropyl)piperidin-3-yl)amino)pyridazin-3-yl)-3-methyl-5-(trifluoromethyl)phenol]
IC50 [1]: > 100 µM

Cc1cc(C(F)(F)F)cc(O)c1-c1ccc(N[C@@H]2C[C@H](O)CN(C)C2)nn1 [Ex 97, (3S,5R)-5-((6-(2-Hydroxy-6-methyl-4-(trifluoromethyl)phenyl)pyridazin-3-yl)amino)-1-methylpiperidin-3-ol]
IC50 [1]: > 100 µM

Cc1cc(-c2c(C)cc(C(F)(F)F)cc2O)nnc1N[C@@H]1CCCNC1 [Ex 100, (R)-3-Methyl-2-(5-methyl-6-(piperidin-3-ylamino)pyridazin-3-yl)-5-(trifluoromethyl)phenol]
IC50 [1]: > 100 µM

CCN1CCC[C@@H](Nc2nnc(-c3c(C)cc(C(F)(F)F)cc3O)cc2C)C1 [Ex 101, (R)-2-(6-((1-Ethylpiperidin-3-yl)amino)-5-methylpyridazin-3-yl)-3-methyl-5-(trifluoromethyl)-phenol]
IC50 [1]: > 100 µM

Cc1cc(-c2c(C)cc(C(F)(F)F)cc2O)nnc1N[C@@H]1CCCN(C)C1=O [Ex 102, (R)-3-((6-(2-Hydroxy-6-methyl-4-(trifluoromethyl)phenyl)-4-methylpyridazin-3-yl)amino)-1-methylpiperidin-2-one]
IC50 (NLRP3 inflammasome): 0.049 µM
